Experimental data published in ChEMBL document CHEMBL2021782, “Drug-to-genome-to-drug, step 2: reversing selectivity in a series of antiplasmodial compounds” (J Med Chem, 2012).

Experiments:
Plasmodium falciparum [1] = test: Antiplasmodial activity against chloroquine-sensitive Plasmodium falciparum GHA infected in human erythrocytes after 72 hrs using malstat staining by spectrophotometry; type: functional, organism-based
[2] = Selectivity ratio of CC50 for human MRC5 SV2 cells to IC50 for chloroquine-sensitive Plasmodium falciparum GHA strain; type: ADME, cell-based; conditions: read-out: Ratio CC50/IC50
[3] = Cytotoxicity against human MRC5 SV2 cells after 72 hrs using resazurin by fluorimetry; type: cell-based
[4] = target: cGMP-specific 3',5'-cyclic phosphodiesterase (Bos taurus, UniProt Q28156); test: Inhibition of bovine PDE5 after 24 hrs by time-resolved fluorescence resonance energy transfer assay
[5] = target: Dual 3',5'-cyclic-AMP and -GMP phosphodiesterase 11A (Homo sapiens) (UniProt Q9HCR9); test: Inhibition of human recombinant PDE11A4 expressed in Sf9 cells at 10 uM after 30 mins by HTRF assay
[6] = target: cGMP-dependent 3',5'-cyclic phosphodiesterase (Homo sapiens) (UniProt O00408); test: Inhibition of human recombinant PDE2A expressed in Sf9 cells at 10 uM after 30 mins by HTRF assay
[7] = target: Dual specificity calcium/calmodulin-dependent 3',5'-cyclic nucleotide phosphodiesterase 1B (Homo sapiens) (UniProt Q01064); test: Inhibition of human recombinant PDE1B expressed in Sf9 cells at 10 uM after 30 mins by HTRF assay
[8] = Selectivity index, ratio of IC50 for chloroquine-sensitive Plasmodium falciparum GHA to IC50 for bovine PDE5
[9] = target: cGMP-inhibited 3',5'-cyclic phosphodiesterase 3A (Homo sapiens) (UniProt Q14432); test: Inhibition of human recombinant PDE3A expressed in Sf9 cells at 10 uM after 30 mins by HTRF assay
[10] = target: cGMP-specific 3',5'-cyclic phosphodiesterase (Homo sapiens) (UniProt O76074); conditions: 10 uM
Description: Inhibition of human PDE5 using [3H]5GMP at 10 uM after 60 mins by scintillation counting

Bos taurus = species: Bos taurus; test: Inhibition of bovine PDE6 using [3H]5GMP at 10 uM after 60 mins by scintillation counting
[11] = target: High affinity 3',5'-cyclic-AMP phosphodiesterase 7A (Homo sapiens) (UniProt Q13946); test: Inhibition of human recombinant PDE7A expressed in Sf9 cells at 10 uM after 30 mins by HTRF assay
[12] = target: Phosphodiesterase 4 (Homo sapiens) (UniProt P27815+Q08499+Q07343+Q08493); test: Inhibition of human recombinant PDE4A1A expressed in Sf9 cells at 10 uM after 30 mins by HTRF assay
[13] = target: cAMP and cAMP-inhibited cGMP 3',5'-cyclic phosphodiesterase 10A (Homo sapiens) (UniProt Q9Y233); test: Inhibition of human recombinant PDE10A1 expressed in Sf9 cells at 10 uM after 30 mins by HTRF assay
[14] = target: High affinity cAMP-specific and IBMX-insensitive 3',5'-cyclic phosphodiesterase 8A (Homo sapiens) (UniProt O60658); test: Inhibition of human recombinant PDE8A1 expressed in Sf9 cells at 10 uM after 30 mins by HTRF assay
Plasmodium falciparum [15] = test: Antiplasmodial activity against chloroquine-sensitive Plasmodium falciparum K1 infected in human erythrocytes after 72 hrs using malstat staining by spectrophotometry; type: functional, organism-based; conditions: K1, 72 h
[16] = Selectivity index, ratio of IC50 for chloroquine-sensitive Plasmodium falciparum K1 to IC50 for bovine PDE5

Sequence of Dual specificity calcium/calmodulin-dependent 3',5'-cyclic nucleotide phosphodiesterase 1B (Homo sapiens) (Q01064 whole entry): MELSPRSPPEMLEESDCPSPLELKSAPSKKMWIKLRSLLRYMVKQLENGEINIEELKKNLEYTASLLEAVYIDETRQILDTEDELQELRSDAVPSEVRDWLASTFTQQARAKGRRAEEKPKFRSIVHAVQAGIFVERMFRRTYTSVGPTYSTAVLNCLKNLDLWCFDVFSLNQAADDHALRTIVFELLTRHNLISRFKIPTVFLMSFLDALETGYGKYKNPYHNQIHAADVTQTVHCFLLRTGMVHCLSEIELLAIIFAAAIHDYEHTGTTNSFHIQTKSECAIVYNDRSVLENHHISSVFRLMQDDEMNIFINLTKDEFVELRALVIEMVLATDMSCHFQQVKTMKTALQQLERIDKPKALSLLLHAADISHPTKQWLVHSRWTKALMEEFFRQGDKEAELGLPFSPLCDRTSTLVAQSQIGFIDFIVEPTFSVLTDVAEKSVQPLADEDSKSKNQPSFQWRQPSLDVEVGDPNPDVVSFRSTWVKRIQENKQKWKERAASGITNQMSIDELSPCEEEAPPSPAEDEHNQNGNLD
Sequence of cGMP-inhibited 3',5'-cyclic phosphodiesterase 3A (Homo sapiens) (Q14432 whole entry): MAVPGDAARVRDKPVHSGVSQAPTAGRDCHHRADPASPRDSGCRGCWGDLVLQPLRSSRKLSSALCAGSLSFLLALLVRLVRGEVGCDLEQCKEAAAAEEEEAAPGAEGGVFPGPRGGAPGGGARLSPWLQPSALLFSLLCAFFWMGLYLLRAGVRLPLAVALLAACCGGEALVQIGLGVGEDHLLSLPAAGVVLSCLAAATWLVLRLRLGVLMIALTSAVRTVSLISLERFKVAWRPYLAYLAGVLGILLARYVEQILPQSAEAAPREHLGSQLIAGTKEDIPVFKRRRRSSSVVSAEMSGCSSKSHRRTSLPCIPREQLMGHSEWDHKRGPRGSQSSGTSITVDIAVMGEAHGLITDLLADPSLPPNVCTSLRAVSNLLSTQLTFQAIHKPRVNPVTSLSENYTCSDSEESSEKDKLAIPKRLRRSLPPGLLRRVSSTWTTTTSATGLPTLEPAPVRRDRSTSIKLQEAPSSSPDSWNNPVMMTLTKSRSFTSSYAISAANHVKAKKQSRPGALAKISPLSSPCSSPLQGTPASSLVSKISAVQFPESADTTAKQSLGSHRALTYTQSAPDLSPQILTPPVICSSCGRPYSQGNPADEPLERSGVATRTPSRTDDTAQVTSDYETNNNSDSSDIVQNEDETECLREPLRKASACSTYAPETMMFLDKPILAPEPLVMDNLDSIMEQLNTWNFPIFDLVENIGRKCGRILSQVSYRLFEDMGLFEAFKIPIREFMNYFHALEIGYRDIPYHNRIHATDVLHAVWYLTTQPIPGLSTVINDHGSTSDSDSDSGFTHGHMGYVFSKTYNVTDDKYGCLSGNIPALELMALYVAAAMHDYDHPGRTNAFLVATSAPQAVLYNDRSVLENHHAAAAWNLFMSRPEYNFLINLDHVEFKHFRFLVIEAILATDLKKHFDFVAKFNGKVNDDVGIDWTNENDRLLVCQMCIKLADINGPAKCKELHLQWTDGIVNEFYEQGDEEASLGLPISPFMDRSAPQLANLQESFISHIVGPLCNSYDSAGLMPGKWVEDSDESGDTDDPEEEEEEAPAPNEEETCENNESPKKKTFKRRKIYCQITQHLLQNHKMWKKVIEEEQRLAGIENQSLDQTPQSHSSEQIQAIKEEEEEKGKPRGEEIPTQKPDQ
Sequence of High affinity 3',5'-cyclic-AMP phosphodiesterase 7A (Homo sapiens) (Q13946 whole entry): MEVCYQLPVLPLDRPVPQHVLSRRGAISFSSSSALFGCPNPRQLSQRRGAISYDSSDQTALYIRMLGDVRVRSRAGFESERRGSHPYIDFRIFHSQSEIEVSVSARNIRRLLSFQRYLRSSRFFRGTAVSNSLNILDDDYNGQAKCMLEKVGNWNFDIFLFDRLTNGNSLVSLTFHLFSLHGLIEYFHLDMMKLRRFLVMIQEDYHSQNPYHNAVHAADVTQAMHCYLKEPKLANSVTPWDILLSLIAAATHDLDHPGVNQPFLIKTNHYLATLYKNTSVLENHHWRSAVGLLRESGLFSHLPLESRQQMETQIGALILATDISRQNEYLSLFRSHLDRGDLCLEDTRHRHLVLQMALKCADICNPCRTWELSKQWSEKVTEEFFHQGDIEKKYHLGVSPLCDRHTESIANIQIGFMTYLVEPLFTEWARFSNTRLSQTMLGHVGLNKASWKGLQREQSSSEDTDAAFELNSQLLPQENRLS
Sequence of High affinity cAMP-specific and IBMX-insensitive 3',5'-cyclic phosphodiesterase 8A (Homo sapiens) (O60658 whole entry): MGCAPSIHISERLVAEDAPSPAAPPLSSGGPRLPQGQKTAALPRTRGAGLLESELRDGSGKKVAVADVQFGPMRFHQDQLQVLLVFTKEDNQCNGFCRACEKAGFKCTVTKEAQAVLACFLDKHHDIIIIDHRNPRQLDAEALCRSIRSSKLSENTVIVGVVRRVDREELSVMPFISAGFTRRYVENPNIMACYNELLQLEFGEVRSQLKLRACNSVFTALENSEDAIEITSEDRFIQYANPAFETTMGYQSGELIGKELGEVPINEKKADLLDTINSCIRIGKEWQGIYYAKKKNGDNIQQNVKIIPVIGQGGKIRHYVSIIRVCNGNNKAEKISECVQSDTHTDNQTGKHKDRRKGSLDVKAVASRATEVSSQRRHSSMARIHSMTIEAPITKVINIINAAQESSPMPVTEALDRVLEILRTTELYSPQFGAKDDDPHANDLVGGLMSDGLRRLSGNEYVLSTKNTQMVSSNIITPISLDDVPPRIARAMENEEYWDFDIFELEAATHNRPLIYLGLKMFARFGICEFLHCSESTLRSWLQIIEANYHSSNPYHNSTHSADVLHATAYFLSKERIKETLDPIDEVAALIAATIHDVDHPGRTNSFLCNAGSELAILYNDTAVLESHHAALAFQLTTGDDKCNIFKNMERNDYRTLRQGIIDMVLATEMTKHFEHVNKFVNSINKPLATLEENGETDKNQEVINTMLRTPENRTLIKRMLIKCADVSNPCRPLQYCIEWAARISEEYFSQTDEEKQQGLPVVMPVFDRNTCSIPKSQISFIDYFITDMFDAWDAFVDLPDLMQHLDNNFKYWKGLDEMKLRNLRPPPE
Sequence of cAMP and cAMP-inhibited cGMP 3',5'-cyclic phosphodiesterase 10A (Homo sapiens) (Q9Y233 whole entry): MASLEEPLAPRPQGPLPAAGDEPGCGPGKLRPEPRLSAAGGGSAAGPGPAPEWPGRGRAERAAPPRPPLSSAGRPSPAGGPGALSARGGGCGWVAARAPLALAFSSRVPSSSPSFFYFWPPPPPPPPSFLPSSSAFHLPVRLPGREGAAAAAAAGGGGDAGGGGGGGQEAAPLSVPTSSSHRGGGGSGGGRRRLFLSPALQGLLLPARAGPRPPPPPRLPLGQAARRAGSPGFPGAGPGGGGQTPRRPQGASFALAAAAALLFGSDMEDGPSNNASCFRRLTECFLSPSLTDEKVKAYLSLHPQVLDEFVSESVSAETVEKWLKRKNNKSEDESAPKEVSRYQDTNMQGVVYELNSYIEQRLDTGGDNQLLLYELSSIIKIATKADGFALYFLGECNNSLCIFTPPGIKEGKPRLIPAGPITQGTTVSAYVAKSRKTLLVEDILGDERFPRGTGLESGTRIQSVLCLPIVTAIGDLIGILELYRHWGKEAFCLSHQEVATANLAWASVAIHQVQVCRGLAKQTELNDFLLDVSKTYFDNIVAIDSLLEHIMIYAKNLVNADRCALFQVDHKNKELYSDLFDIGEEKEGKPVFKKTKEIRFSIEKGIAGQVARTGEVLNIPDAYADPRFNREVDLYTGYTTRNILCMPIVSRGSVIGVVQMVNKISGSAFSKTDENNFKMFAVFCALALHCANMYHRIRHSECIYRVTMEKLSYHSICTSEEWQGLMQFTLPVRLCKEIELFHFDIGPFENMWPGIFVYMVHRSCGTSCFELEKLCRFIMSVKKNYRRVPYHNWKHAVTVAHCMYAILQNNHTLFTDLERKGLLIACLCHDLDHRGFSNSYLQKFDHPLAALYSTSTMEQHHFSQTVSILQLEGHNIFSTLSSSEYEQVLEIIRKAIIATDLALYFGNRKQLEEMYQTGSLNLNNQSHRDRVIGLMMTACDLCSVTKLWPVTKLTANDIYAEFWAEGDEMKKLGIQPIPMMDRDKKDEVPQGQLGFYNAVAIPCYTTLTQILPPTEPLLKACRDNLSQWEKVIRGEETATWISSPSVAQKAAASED
Sequence of Dual 3',5'-cyclic-AMP and -GMP phosphodiesterase 11A (Homo sapiens) (Q9HCR9 whole entry, looked up): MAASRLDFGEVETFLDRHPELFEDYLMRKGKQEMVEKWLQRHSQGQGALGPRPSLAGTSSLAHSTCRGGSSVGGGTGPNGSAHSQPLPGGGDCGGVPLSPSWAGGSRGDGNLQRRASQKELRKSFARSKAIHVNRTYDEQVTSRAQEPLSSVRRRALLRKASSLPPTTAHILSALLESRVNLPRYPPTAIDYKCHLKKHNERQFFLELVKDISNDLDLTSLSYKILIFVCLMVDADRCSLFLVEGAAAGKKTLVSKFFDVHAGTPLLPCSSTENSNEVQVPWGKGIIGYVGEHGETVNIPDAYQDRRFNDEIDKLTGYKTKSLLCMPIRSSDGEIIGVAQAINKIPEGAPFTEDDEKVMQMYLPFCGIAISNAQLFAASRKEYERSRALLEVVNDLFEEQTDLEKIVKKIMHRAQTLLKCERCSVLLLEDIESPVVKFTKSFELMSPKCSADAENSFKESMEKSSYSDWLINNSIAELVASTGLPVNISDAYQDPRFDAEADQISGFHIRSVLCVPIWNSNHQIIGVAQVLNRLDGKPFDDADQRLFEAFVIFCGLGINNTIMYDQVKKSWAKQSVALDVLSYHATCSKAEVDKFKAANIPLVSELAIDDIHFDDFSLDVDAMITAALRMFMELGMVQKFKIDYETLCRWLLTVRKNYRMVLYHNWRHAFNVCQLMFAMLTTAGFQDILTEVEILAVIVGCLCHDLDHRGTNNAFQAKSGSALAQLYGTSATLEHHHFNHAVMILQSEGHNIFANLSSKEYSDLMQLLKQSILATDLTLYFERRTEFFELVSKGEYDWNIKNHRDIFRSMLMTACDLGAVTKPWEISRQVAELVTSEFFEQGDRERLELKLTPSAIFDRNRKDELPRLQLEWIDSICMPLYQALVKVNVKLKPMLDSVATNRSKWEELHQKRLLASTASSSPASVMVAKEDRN

Structure (SMILES)	IC50 (Plasmodium falciparum [1])	selectivity ratio [2]	CC50 at 72 h [3]	IC50 [4]	further results
O=C1[C@H]2Cc3c([nH]c4ccccc34)[C@@H](c3ccc4c(c3)OCO4)N2C(=O)CN1[C@@H]1CCN(CC2CCCC2)C1	0.25 µM	22	22 µM		
COc1ccc([C@@H]2c3[nH]c4ccccc4c3C[C@@H]3C(=O)N(C)CC(=O)N23)cc1OC	> 64 µM	> 64	> 64 µM	> 10 µM	
CCCCN1CC[C@@H](N2CC(=O)N3[C@H](c4ccc5c(c4)OCO5)c4[nH]c5ccccc5c4C[C@@H]3C2=O)C1	12 µM	< 1	< 1 µM		
CN(C)C(=O)CN1CC[C@@H](N2CC(=O)N3[C@H](c4ccc5c(c4)OCO5)c4[nH]c5ccccc5c4C[C@@H]3C2=O)C1	2 µM	> 32	> 32 µM	0.003 µM	
O=C1[C@H]2Cc3c([nH]c4ccccc34)[C@@H](c3ccc4c(c3)OCO4)N2C(=O)CN1[C@@H]1CCN(Cc2ccccn2)C1	4 µM	13	13 µM	0.002 µM	
O=C1[C@H]2Cc3c([nH]c4ccccc34)[C@@H](c3ccc4c(c3)OCO4)N2C(=O)CN1[C@@H]1CCN(CC2CCCCC2)C1	0.9 µM	7	7 µM		
O=C1[C@H]2Cc3c([nH]c4ccccc34)[C@@H](c3ccc(OC(F)F)cc3)N2C(=O)CN1[C@@H]1CCN(Cc2ccccc2)C1	11 µM	> 6	> 64 µM		
O=C1[C@H]2Cc3c([nH]c4ccccc34)[C@@H](c3ccc4c(c3)OCO4)N2C(=O)CN1[C@@H]1CCN(CCCCCO)C1	12 µM	3	3 µM		
COc1ccc([C@@H]2c3[nH]c4ccccc4c3C[C@@H]3C(=O)N([C@@H]4CCN(Cc5ccccc5)C4)CC(=O)N23)cc1OC	0.42 µM	76	32 µM	5.2 µM	inhibition [5]: 30%; inhibition [6]: 0%; inhibition [7]: 0%; Ratio IC50 [8]: 12.4; inhibition [9]: 1%; inhibition [10]: 48%; inhibition (Bos taurus): 18%; inhibition [11]: 0%; inhibition [12]: 1%; inhibition [13]: 0%; inhibition [14]: 3%
COc1ccc([C@@H]2c3[nH]c4ccccc4c3C[C@@H]3C(=O)N([C@@H]4CCN(Cc5nccn5C)C4)CC(=O)N23)cc1OC		37	37 µM	5.6 µM	IC50 (Plasmodium falciparum [15]): 1.6 µM; Ratio IC50 [16]: 3
COc1ccc(CN2CC[C@@H](N3CC(=O)N4[C@H](c5ccc6c(c5)OCO6)c5[nH]c6ccccc6c5C[C@@H]4C3=O)C2)cc1	10 µM	< 1	< 1 µM		
CN(C)c1ccc(CN2CC[C@@H](N3CC(=O)N4[C@H](c5ccc6c(c5)OCO6)c5[nH]c6ccccc6c5C[C@@H]4C3=O)C2)cc1	7 µM	< 1	< 1 µM		
COc1cc([C@@H]2c3[nH]c4ccccc4c3C[C@@H]3C(=O)N([C@@H]4CCN(Cc5ccccc5)C4)CC(=O)N23)ccc1O	0.52 µM	44	23 µM	> 1 µM	
CC(C)(C)OC(=O)NCCN1CC[C@@H](N2CC(=O)N3[C@H](c4ccc5c(c4)OCO5)c4[nH]c5ccccc5c4C[C@@H]3C2=O)C1	0.22 µM	154	154 µM	0.001 µM	Ratio IC50 [8]: 0.018
O=C1[C@H]2Cc3c([nH]c4ccccc34)[C@@H](c3ccc(Cl)nc3)N2C(=O)CN1[C@@H]1CCN(Cc2ccccc2)C1	11 µM	1	14 µM		
O=C1[C@H]2Cc3c([nH]c4ccccc34)[C@@H](c3ccc4c(c3)OCCO4)N2C(=O)CN1[C@@H]1CCN(Cc2ccccc2)C1	5 µM	> 13	> 64 µM		
O=C1[C@H]2Cc3c([nH]c4ccccc34)[C@@H](c3ccc4nonc4c3)N2C(=O)CN1[C@@H]1CCN(Cc2ccccc2)C1	6 µM	> 10	> 64 µM		
CN1CC(=O)N2[C@H](c3ccc4c(c3)OCO4)c3[nH]c4ccccc4c3C[C@@H]2C1=O	> 64 µM		> 64 µM		
COc1ccc([C@@H]2c3[nH]c4ccccc4c3C[C@@H]3C(=O)N([C@@H]4CCN(Cc5ccccc5)C4)CC(=O)N23)cc1O	0.61 µM	36	22 µM	0.056 µM	
O=C1[C@H]2Cc3c([nH]c4ccccc34)[C@@H](c3ccc4nnnn4c3)N2C(=O)CN1[C@@H]1CCN(Cc2ccccc2)C1	7 µM	3	21 µM		
O=C1[C@H]2Cc3c([nH]c4ccccc34)[C@@H](c3ccc4c(c3)OC(F)(F)O4)N2C(=O)CN1[C@@H]1CCN(Cc2ccccc2)C1	11 µM	1	8 µM		
O=C1[C@H]2Cc3c([nH]c4ccccc34)[C@@H](c3ccc4c(c3)OCO4)N2C(=O)CN1C1CCN(Cc2ccccc2)CC1			7 µM		
O=C1[C@H]2Cc3c([nH]c4ccccc34)[C@@H](c3ccc4c(c3)OCO4)N2C(=O)CN1[C@@H]1CCN(CCc2ccccc2)C1	5.3 µM	1	1 µM		
O=C1[C@H]2Cc3c([nH]c4ccccc34)[C@@H](c3ccc4nsnc4c3)N2C(=O)CN1[C@@H]1CCN(Cc2ccccc2)C1	0.6 µM	50	30 µM	0.028 µM	
O=C1[C@H]2Cc3c([nH]c4ccccc34)[C@@H](c3ccc4c(c3)OCO4)N2C(=O)CN1[C@@H]1CCN(Cc2ccccc2)C1		20	10 µM	0.005 µM	Ratio IC50 [8]: 0.014
Cn1ccnc1CN1CC[C@@H](N2CC(=O)N3[C@H](c4ccc5c(c4)OCO5)c4[nH]c5ccccc5c4C[C@@H]3C2=O)C1	0.8 µM	50	50 µM	0.001 µM	Ratio IC50 [8]: 0.003
COc1ccc([C@@H]2c3[nH]c4ccccc4c3C[C@@H]3C(=O)N([C@@H]4CCN(Cc5ccc6c(c5)OCO6)C4)CC(=O)N23)cc1OC		25	25 µM	> 10 µM	IC50 (Plasmodium falciparum [15]): 0.95 µM; Ratio IC50 [16]: > 10
COc1ccc([C@@H]2c3[nH]c4ccccc4c3C[C@@H]3C(=O)N([C@@H]4CCN(CCNC(=O)OC(C)(C)C)C4)CC(=O)N23)cc1OC		10	10 µM	> 10 µM	IC50 (Plasmodium falciparum [15]): 0.74 µM; Ratio IC50 [16]: > 13
O=C1[C@H]2Cc3c([nH]c4ccccc34)[C@@H](c3ccc4c(c3)OCO4)N2C(=O)CN1[C@@H]1CCN(CCOc2ccccc2)C1	0.7 µM	11	11 µM		
O=C1[C@H]2Cc3c([nH]c4ccccc34)[C@@H](c3ccc4c(c3)OCO4)N2C(=O)CN1[C@@H]1CCN(Cc2ccc3c(c2)OCO3)C1	0.53 µM	78	78 µM	0.007 µM	Ratio IC50 [8]: 0.013
